These results are taken from patent US20260306968A1, “METHOD FOR THE SEPARATION OF PHOSPHORUS STEREOISOMERS OF REMDESIVIR USING LIQUID-LIQUID CHROMATOGRAPHY” (ROTACHROM TECHNOLÓGIAI ZRT., priority 2023, published 2026).

The conditions of series [1]: Várnai et al., J. Pharm. Biomed. Anal., 2021; cited from earlier work.
The nature of series [2]: Dissolving ability of the preferred solvent systems for the remdesivir mixture. The class given is physicochemical. The protocol:
The preferred solvent systems are characterized by a short settling time (less than 30 sec), a good dissolving ability (more than 20 mg racemic mixture of remdesivir can be dissolved in 1 mL of the solvent system), while from the toxicological aspect, their components can be categorized into class 3 and/or class 4 solvents classes.

Turning to `CCC(CC)COC(=O)[C@H](C)N[P@](=O)(OC[C@H]1O[C@@](C#N)(c2ccc3c(N)ncnn23)[C@H](O)[C@@H]1O)Oc1ccccc1` [remdesivir], the “ionization constant (basic pka)” value in series [1] is reported as 3.56.

Consider `CCC(CC)COC(=O)[C@H](C)NP(=O)(OC[C@H]1O[C@@](C#N)(c2ccc3c(N)ncnn23)[C@H](O)[C@@H]1O)Oc1ccccc1` (mixture of isomers) [racemic mixture of remdesivir], for which the “amount that can be dissolved in 1 mL of the solvent system” value in series [2] is recorded as “more than 20 mg”.
